Source: PubChem BioAssay (NCI)
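Where inhibition never reached the appropriate level, the endpoint shown equals the highest concentration tested. Otherwise, values were interpolated linearly from a five-concentration, 48-hour dose response in 96-well plates. At the TGI there is no net growth.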

How the values were obtained:
Experiment in all cases: DTP human tumour cell line panel, 48 h
ACHN renal = tested on: ACHN renal
SNB-75 CNS = tested on: SNB-75 CNS
M19-MEL melanoma = tested on: M19-MEL melanoma
DLD-1 colon = tested on: DLD-1 colon
EKVX NSCLC = tested on: EKVX NSCLC
CCRF-CEM leukemia = tested on: CCRF-CEM leukemia
SF-539 CNS = tested on: SF-539 CNS
MALME-3M melanoma = tested on: MALME-3M melanoma
SNB-78 CNS = tested on: SNB-78 CNS
SF-295 CNS = tested on: SF-295 CNS
HCT-15 colon = tested on: HCT-15 colon
COLO 205 colon = tested on: COLO 205 colon
UACC-257 melanoma = tested on: UACC-257 melanoma
MOLT-4 leukemia = tested on: MOLT-4 leukemia
KM20L2 colon = tested on: KM20L2 colon
SK-MEL-5 melanoma = tested on: SK-MEL-5 melanoma
HOP-62 NSCLC = tested on: HOP-62 NSCLC
DMS 114 small cell lung = tested on: DMS 114 small cell lung
A498 renal = tested on: A498 renal
LOX IMVI melanoma = tested on: LOX IMVI melanoma
SK-MEL-28 melanoma = tested on: SK-MEL-28 melanoma
A549 NSCLC = tested on: A549 NSCLC
NCI-H460 lung = tested on: NCI-H460 lung
RPMI-8226 leukemia = tested on: RPMI-8226 leukemia
HCC-2998 colon = tested on: HCC-2998 colon
K-562 leukemia = tested on: K-562 leukemia
SF-268 CNS = tested on: SF-268 CNS
OVCAR-8 ovarian = tested on: OVCAR-8 ovarian
KM12 colon = tested on: KM12 colon
IGROV1 ovarian = tested on: IGROV1 ovarian
OVCAR-3 ovarian = tested on: OVCAR-3 ovarian
M14 melanoma = tested on: M14 melanoma
SN12C renal = tested on: SN12C renal
NCI-H522 lung = tested on: NCI-H522 lung
RXF-631 renal = tested on: RXF-631 renal
OVCAR-5 ovarian = tested on: OVCAR-5 ovarian
UACC-62 melanoma = tested on: UACC-62 melanoma
DMS 273 small cell lung = tested on: DMS 273 small cell lung
NCI-H226 lung = tested on: NCI-H226 lung
UO-31 renal = tested on: UO-31 renal
SNB-19 CNS = tested on: SNB-19 CNS
SK-MEL-2 melanoma = tested on: SK-MEL-2 melanoma
SK-OV-3 ovarian = tested on: SK-OV-3 ovarian
RXF 393 renal = tested on: RXF 393 renal
SW-620 colon = tested on: SW-620 colon
OVCAR-4 ovarian = tested on: OVCAR-4 ovarian
CAKI-1 renal = tested on: CAKI-1 renal
NCI-H23 lung = tested on: NCI-H23 lung
TK-10 renal = tested on: TK-10 renal
LXFL 529 NSCLC = tested on: LXFL 529 NSCLC
HCT-116 colon = tested on: HCT-116 colon
HT29 colon = tested on: HT29 colon
U251 CNS = tested on: U251 CNS
786-0 renal = tested on: 786-0 renal
HL-60(TB) leukemia = tested on: HL-60(TB) leukemia

Work on `O=C1CCCCCCCCCCC(=O)N2CCOCCOCCN1Cc1cccc(n1)C2` yielded a TGI (ACHN renal) greater than 100 µM, a TGI (SNB-75 CNS) greater than 100 µM and a TGI (M19-MEL melanoma) greater than 100 µM. For the same compound, the TGI (DLD-1 colon) was greater than 100 µM, the TGI (EKVX NSCLC) was greater than 100 µM and the TGI (CCRF-CEM leukemia) was greater than 100 µM. It also gave a TGI (SF-539 CNS) greater than 100 µM, a TGI (MALME-3M melanoma) greater than 100 µM and a TGI (SNB-78 CNS) greater than 100 µM. It also gave a TGI (SF-295 CNS) greater than 100 µM, a TGI (HCT-15 colon) greater than 100 µM and a TGI (COLO 205 colon) greater than 100 µM. It also gave a TGI (UACC-257 melanoma) greater than 100 µM, a TGI (MOLT-4 leukemia) greater than 100 µM and a TGI (KM20L2 colon) greater than 100 µM. For the same compound, the TGI (SK-MEL-5 melanoma) was greater than 100 µM, the TGI (HOP-62 NSCLC) was greater than 100 µM and the TGI (DMS 114 small cell lung) was greater than 100 µM. It also gave a TGI (A498 renal) greater than 100 µM, a TGI (LOX IMVI melanoma) greater than 100 µM and a TGI (SK-MEL-28 melanoma) greater than 100 µM. For the same compound, the TGI (A549 NSCLC) was greater than 100 µM, the TGI (NCI-H460 lung) was greater than 100 µM and the TGI (RPMI-8226 leukemia) was greater than 100 µM. The TGI (HCC-2998 colon) was greater than 100 µM, the TGI (K-562 leukemia) was greater than 100 µM and the TGI (SF-268 CNS) was greater than 100 µM. For the same compound, the TGI (OVCAR-8 ovarian) was greater than 100 µM, the TGI (KM12 colon) was greater than 100 µM and the TGI (IGROV1 ovarian) was greater than 100 µM. It also gave a TGI (OVCAR-3 ovarian) greater than 100 µM, a TGI (M14 melanoma) greater than 100 µM and a TGI (SN12C renal) greater than 100 µM. It also gave a TGI (NCI-H522 lung) greater than 100 µM, a TGI (RXF-631 renal) greater than 100 µM and a TGI (OVCAR-5 ovarian) greater than 100 µM. It also gave a TGI (UACC-62 melanoma) greater than 100 µM, a TGI (DMS 273 small cell lung) greater than 100 µM and a TGI (NCI-H226 lung) greater than 100 µM. The TGI (UO-31 renal) was greater than 100 µM, the TGI (SNB-19 CNS) was greater than 100 µM and the TGI (SK-MEL-2 melanoma) was greater than 100 µM. The TGI (SK-OV-3 ovarian) was greater than 100 µM, the TGI (RXF 393 renal) was greater than 100 µM and the TGI (SW-620 colon) was greater than 100 µM. For the same compound, the TGI (OVCAR-4 ovarian) was greater than 100 µM, the TGI (CAKI-1 renal) was greater than 100 µM and the TGI (NCI-H23 lung) was greater than 100 µM. The TGI (TK-10 renal) was greater than 100 µM, the TGI (LXFL 529 NSCLC) was greater than 100 µM and the TGI (HCT-116 colon) was greater than 100 µM. It also gave a TGI (HT29 colon) greater than 100 µM, a TGI (U251 CNS) greater than 100 µM and a TGI (786-0 renal) greater than 100 µM.

Compound `CCOC(=O)C(=O)Nc1ccc(C)c(C)c1` has a TGI (ACHN renal) greater than 100 µM, a TGI (SNB-75 CNS) greater than 100 µM and a TGI (M19-MEL melanoma) greater than 100 µM. It also gave a TGI (DLD-1 colon) greater than 100 µM, a TGI (EKVX NSCLC) greater than 100 µM and a TGI (CCRF-CEM leukemia) greater than 100 µM. The TGI (SF-539 CNS) was greater than 100 µM, the TGI (MALME-3M melanoma) was greater than 100 µM and the TGI (SNB-78 CNS) was greater than 100 µM. The TGI (SF-295 CNS) was greater than 100 µM, the TGI (HCT-15 colon) was greater than 55.4 µM and the TGI (COLO 205 colon) was 32.2 µM. For the same compound, the TGI (UACC-257 melanoma) was greater than 100 µM, the TGI (MOLT-4 leukemia) was greater than 100 µM and the TGI (KM20L2 colon) was greater than 100 µM. For the same compound, the TGI (SK-MEL-5 melanoma) was greater than 100 µM, the TGI (HOP-62 NSCLC) was greater than 100 µM and the TGI (DMS 114 small cell lung) was greater than 56.5 µM. For the same compound, the TGI (A498 renal) was greater than 100 µM, the TGI (LOX IMVI melanoma) was greater than 100 µM and the TGI (SK-MEL-28 melanoma) was greater than 100 µM. The TGI (A549 NSCLC) was greater than 100 µM, the TGI (NCI-H460 lung) was greater than 100 µM and the TGI (RPMI-8226 leukemia) was greater than 100 µM. For the same compound, the TGI (HCC-2998 colon) was greater than 100 µM, the TGI (K-562 leukemia) was greater than 100 µM and the TGI (SF-268 CNS) was greater than 100 µM. It also gave a TGI (KM12 colon) greater than 93.8 µM, a TGI (IGROV1 ovarian) greater than 100 µM and a TGI (M14 melanoma) greater than 100 µM. The TGI (SN12C renal) was greater than 100 µM, the TGI (NCI-H522 lung) was greater than 100 µM and the TGI (RXF-631 renal) was greater than 100 µM. The TGI (OVCAR-5 ovarian) was greater than 100 µM, the TGI (UACC-62 melanoma) was greater than 100 µM and the TGI (DMS 273 small cell lung) was greater than 100 µM. It also gave a TGI (NCI-H226 lung) greater than 100 µM, a TGI (UO-31 renal) greater than 100 µM and a TGI (SNB-19 CNS) greater than 100 µM. The TGI (HL-60(TB) leukemia) was greater than 100 µM, the TGI (SK-MEL-2 melanoma) was greater than 100 µM and the TGI (SK-OV-3 ovarian) was greater than 100 µM. The TGI (RXF 393 renal) was greater than 100 µM, the TGI (SW-620 colon) was 20 µM and the TGI (OVCAR-4 ovarian) was greater than 100 µM. For the same compound, the TGI (CAKI-1 renal) was greater than 100 µM, the TGI (NCI-H23 lung) was greater than 100 µM and the TGI (TK-10 renal) was greater than 100 µM. The TGI (LXFL 529 NSCLC) was greater than 100 µM, the TGI (HCT-116 colon) was greater than 100 µM and the TGI (HT29 colon) was greater than 100 µM. The TGI (U251 CNS) was greater than 100 µM and the TGI (786-0 renal) was greater than 100 µM.
